Assay results: publication PMC12933331, “A Cryptic Pocket Allosterically Modulates Oligosaccharide Binding to DC-SIGN” (JACS Au, 2026)
Positions count from the first letter of the chain named. Names may count otherwise. Blank lines part the entries; values can stand above or below the molecule they belong to.

How the values were obtained:
DC-SIGN ECD M270F [1] = biological target: T1, DC-SIGN ECD M270F (Homo sapiens, UniProt Q9NNX6, M270F); assay: Plate-based horseradish peroxidase assay; type: binding
T1 construct: acids 64 -404 of DC -SIGN; made in house
T1 sequence (Q9NNX6 64-404 M270F): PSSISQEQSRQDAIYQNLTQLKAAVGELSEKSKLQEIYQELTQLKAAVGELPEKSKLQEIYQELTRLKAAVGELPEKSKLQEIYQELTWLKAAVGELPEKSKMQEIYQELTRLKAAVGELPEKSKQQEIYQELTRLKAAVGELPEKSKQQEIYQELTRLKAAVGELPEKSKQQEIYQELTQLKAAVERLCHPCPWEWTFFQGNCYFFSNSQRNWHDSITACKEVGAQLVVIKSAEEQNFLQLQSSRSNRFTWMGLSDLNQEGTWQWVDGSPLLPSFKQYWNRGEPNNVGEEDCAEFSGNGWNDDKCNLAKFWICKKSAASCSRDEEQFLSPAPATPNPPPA
Experimental: (§1) chromatography. Purified protein was dialyzed against 25 mM HEPES, 150 mM NaCl, 10 mM CaCl2, pH 7.4, concentrated using a centrifugal spin filter, snap frozen and then stored at -80°C. […]
(§2) Plate-based horseradish peroxidase assay
(§3) General remarks. Unless stated otherwise, all reagents and buffers were obtained from Sigma Aldrich or Carl Roth. Measurements were done on a Enspire Multimode Plate Reader (PerkinElmer). GraphPad Prism was used for all data processing and analysis.
(§4) CaCl2 titration. 100 µg mL-1 DC-SIGN ECD were immobilized in immobilization buffer (25 mM HEPES, 150 mM NaCl, 25 mM CaCl 2, pH 7.4) overnight at 4°C on transparent Nunc Maxisorp 96-well plates (Thermo Fisher). Protein solution was removed, and plates were washed three times with immobilization buffer and then blocked for 2 hours at 4°C with blocking buffer (25 mM HEPES, 150 mM NaCl, 25 mM CaCl 2, 2% BSA, 0.01% Tween -20). Plates were washed twice with 25 mM HEPES, 150 mM NaCl, 5 mM EDTA, pH 7.4 and twice with 25 mM HEPES, 150 mM NaCl, pH 7.4 to remove residual Ca 2+. To titrate Ca2+, CaCl2 in 25 mM HEPES, 150 mM NaCl, pH 7.4 was serially diluted on the plate at a constant HRP concentration of 1 µg mL-1 and then incubated at RT for 2 hours. Following incubation, plates were washed three times with 25 mM HEPES, 150 mM NaCl, pH 7.4 and bound HRP was detected using a TMB substrate kit (Thermo Fisher) and 0.18 M H2SO4 according to manufacturer’s instructions. Absorption was […]
(§5) HRP titration. Immobilization and blocking were done as described above. After blocking, plates were washed three times with immobilization buffer. HRP in immobilization buffer was serially diluted on the plate at a constant concentration CaCl2 concentration of 25 mM and then incubated […]
(§6) at RT for 2 hours. Following incubation, plates were washed three times with immobilization buffer and HRP was detected as described above.
(§7) Immobilization and blocking were done as described above. After blocking, plates were washed three times with immobilization buffer. Mannose in immobilization buffer containing 1 µg mL-1 HRP was serially diluted on the plate and then incubated at RT for 2 hours.
(§8) Following incubation, plates were washed three times with immobilization buffer and HRP was detected as described above.
(§9) All conditions were measured in technical triplicates, averaged and normalized to the control well […]
(§10) IC50 and EC50 values and hill […]
(§11) slopes (nH) were obtained in a four-parameter fit according to equation (1).
(§12) Y = bottom + top − bottom (1)
(§13) With bottom and top representing the minimal and maximal response plateaus, respectively, Y as the observed response and X the logarithmic concentration of the ligand . […]
(§14) Biosynth. Spectra were processed in TopSpin 4.2.0 and data analysis was performed using CCPN Analysis 3.2.0 for 2D spectra and in MestreNova for 1D spectra.2 Further analysis was done using GraphPad Prism and in-house python scripts.

DC-SIGN ECD wildtype [2] = biological target: T2, DC-SIGN ECD wildtype (Homo sapiens, UniProt Q9NNX6); assay: Plate-based horseradish peroxidase assay; type: binding
T2 construct: acids 64 -404 of DC -SIGN; made in house
T2 sequence (Q9NNX6 64-404): T1 sequence (Q9NNX6 64-404 M270F) with F207M
Experimental: as §1, §2, §3, §4, §5, §6, §7, §8, §9, §10, §11, §12, §13, §14

DC-SIGN ECD T314A [3] = biological target: T3, DC-SIGN ECD T314A (Homo sapiens, UniProt Q9NNX6, T314A); assay: Plate-based horseradish peroxidase assay; type: binding
T3 construct: acids 64 -404 of DC -SIGN; made in house
T3 sequence (Q9NNX6 64-404 T314A): T1 sequence (Q9NNX6 64-404 M270F) with F207M, T251A

DC-SIGN ECD M270F [4] = biological target: T1, DC-SIGN ECD M270F; assay: 19F R2-filtered NMR reporter assay, CaCl2 titration; settings: binding of 0.1 mM ManNAcF3 reporter, R2,obs
Experimental: (§15) 19F R2-filtered NMR reporter displacement assay. The 19F R2-filtered NMR reporter displacement assay was adjusted for CaCl2 titrations with DC-SIGN ECD as previously described.1 Apparent transverse relaxation rates R2,obs were obtained using the CPMG pulse sequence with a relaxation delay d1 of 2.0 s, acquisition time tacq of 0.8 s and a CPMG frequency νCPMG of 500 Hz.
(§16) DC-SIGN ECD was dialyzed four times against 25 mM HEPES, 150 mM NaCl (pH 7.4) to remove Ca2+ prior to measurements. Samples contained 25 μM DC-SIGN ECD in 25 mM HEPES, 150 mM NaCl (pH 7.4) supplemented with 10% D2O and 0.1 mM of the ManNAcF3 reporter molecule.
(§17) TFA at a concentration of 0.1 mM served as an internal reference. 512 scans were recorded to ensure sufficient signal to noise ratios. R2,obs values were obtained by fitting equation 5 to integrals I of the 19F resonance of the reporter at different relaxation times T with I0 as integral at T = 0 s. […]

DC-SIGN ECD T314A [5] = biological target: T3, DC-SIGN ECD T314A; assay: as above; settings: binding of 0.1 mM ManNAcF3 reporter, R2,obs
Experimental: as §15, §16, §17

DC-SIGN ECD wildtype [6] = biological target: T2, DC-SIGN ECD wildtype; assay: as above; settings: binding of 0.1 mM ManNAcF3 reporter, R2,obs
Experimental: as §15, §16, §17

DC-SIGN CRD M270F = biological target: T4, DC-SIGN CRD M270F (Homo sapiens, UniProt Q9NNX6, M270F); assay: 1H-15N HSQC NMR titration (CSP fitting); type: binding
T4 construct: acids 253-404 of DC-SIGN; His-tag (N); made in house
T4 sequence (Q9NNX6 253-404 M270F): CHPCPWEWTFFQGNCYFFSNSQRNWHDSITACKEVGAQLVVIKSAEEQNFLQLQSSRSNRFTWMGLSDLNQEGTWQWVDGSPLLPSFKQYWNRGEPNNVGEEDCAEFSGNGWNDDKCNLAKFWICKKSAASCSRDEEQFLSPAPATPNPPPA
Experimental: (§18) 1H-15N HSQC NMR. 1H-15N HSQC NMR spectra were collected with 256 increments in the nitrogen and 24 scans per increment and 2048 points in the direct dimension. The relaxation delay d1 was set to 1.0 s. The W5 WATERGATE pulse sequence was used for solvent suppression.3, 4 Experiments were performed at a CRD concentration of 200 μM in 20 mM MES, 40 mM NaCl, 10 mM CaCl2 (pH 6.0) supplemented with 10% D 2O and, if applicable, varying concentrations of ligands. Samples of apo DC -SIGN CRD were prepared as described for 1H-13C HSQC NMR experiments. A previously published resonance assignment of DC-SIGN CRD was transferred to the nearest neighbor in a reference spectrum recorded without ligand.5 Unassigned, overlapping or disappearing peaks were not assigned.
(§19) CSPs induced by mutations or ligands were calculated as previously described according to […]
(§20) The empirical weighing factor a was set to 0.15 for all calculations.
(§21) Dissociation constants (K Ds) were determined in titration experiments at five ligand concentratio ns […]
(§22) in the fast exchange regime were used for the fitting procedure via equation 4 in a global two - […]
(§23) with CSP max corresponding to the CSP values upon saturation and the bound protein fraction p b […]
(§24) CHESPA was performed as previously described .7 The chemical shift vector between apo and holo wildtype DC -SIGN CRD was used as reference perturbation to calculate the vector product to […]

DC-SIGN CRD T314A = biological target: T5, DC-SIGN CRD T314A (Homo sapiens, UniProt Q9NNX6, T314A); assay: 1H-15N HSQC NMR titration (CSP fitting); type: binding; settings: Lewis X titration, three concentrations, saturation not reached (estimated)
T5 construct: acids 253-404 of DC-SIGN; His-tag (N); made in house
T5 sequence (Q9NNX6 253-404 T314A): T4 sequence (Q9NNX6 253-404 M270F) with F18M, T62A
Experimental: as §18, §19, §20, §21, §22, §23, §24

DC-SIGN CRD wildtype = biological target: T6, DC-SIGN CRD wildtype (Homo sapiens, UniProt Q9NNX6); assay: 1H-15N HSQC NMR titration (CSP fitting); type: binding
T6 construct: acids 253-404 of DC-SIGN; His-tag (N); made in house
T6 sequence (Q9NNX6 253-404): T4 sequence (Q9NNX6 253-404 M270F) with F18M
Experimental: as §18, §19, §20, §21, §22, §23, §24

[7] = biological target: the molecule itself; assay: dynamic light scattering; purified ECDs; tetrameric state judged from mannan affinity chromatography, DLS and DSF together
[8] = constant HRP concentration (1 µg mL-1), read-out: EC50 (mean ± SD), CaCl2 titration
[9] = Lewis X titration, three concentrations, saturation not reached (estimated)
[10] = HRP titration at saturating CaCl2
[11] = saturating CaCl2 (25 mM), plate-immobilized ECD

Molecule: CC(=O)N[C@H]1C(O)O[C@H](CO)[C@@H](O[C@@H]2O[C@H](CO)[C@H](O)[C@H](O)[C@H]2O)[C@@H]1O[C@@H]1O[C@@H](C)[C@@H](O)[C@@H](O)[C@@H]1O (stereo partly drawn) [Lewis X, Lewis X trisaccharide]
Kd (DC-SIGN CRD M270F; [9]): 600 ± 200 µM | Kd (DC-SIGN CRD T314A): 1400 ± 100 µM | Kd (DC-SIGN CRD wildtype; [9]): 1100 ± 200 µM

Molecule: Oc1ccccc1 [phenol]
CSPs on addition of phenol (DC-SIGN CRD M270F; 20 mM phenol, holo CRD, compared with wildtype): drastically reduced CSPs | CSPs on addition of phenol (DC-SIGN CRD wildtype; 20 mM phenol, holo 15N-labeled CRD, residues of cryptic pocket and upper cavity): strong chemical shift perturbations

B1: DC-SIGN extracellular domain (ECD) M270F (receptor, UniProt Q9NNX6 59-404, looked up)
chain: QVSKVPSSISQEQSRQDAIYQNLTQLKAAVGELSEKSKLQEIYQELTQLKAAVGELPEKSKLQEIYQELTRLKAAVGELPEKSKLQEIYQELTWLKAAVGELPEKSKMQEIYQELTRLKAAVGELPEKSKQQEIYQELTRLKAAVGELPEKSKQQEIYQELTRLKAAVGELPEKSKQQEIYQELTQLKAAVERLCHPCPWEWTFFQGNCYFFSNSQRNWHDSITACKEVGAQLVVIKSAEEQNFLQLQSSRSNRFTWMGLSDLNQEGTWQWVDGSPLLPSFKQYWNRGEPNNVGEEDCAEFSGNGWNDDKCNLAKFWICKKSAASCSRDEEQFLSPAPATPNPPPA
notes: DC-SIGN (CD209), extracellular domain with the point mutation M270F
stoichiometry N [7]: 4

B2: DC-SIGN extracellular domain (ECD) T314A (receptor, UniProt Q9NNX6 59-404, looked up)
chain: B1 chain with F212M, T256A
notes: DC-SIGN (CD209), extracellular domain with the point mutation T314A
stoichiometry N [7]: 4

Results, then the molecule that gave them:

EC50 (DC-SIGN ECD M270F [1]; [8]): 700 ± 200 µM | EC50 (DC-SIGN ECD wildtype [2]; [8]): 1000 ± 400 µM | EC50 (DC-SIGN ECD T314A [3]; [8]): 1200 ± 300 µM | hill slope, CaCl2 titration (DC-SIGN ECD M270F [4]): 1.4 | EC50 (DC-SIGN ECD M270F [4]; 25 μM ECD): 200 µM | hill slope, CaCl2 titration (DC-SIGN ECD T314A [5]): 1.7 | EC50 (DC-SIGN ECD T314A [5]; 25 μM ECD): 600 µM | hill slope, CaCl2 titration (DC-SIGN ECD wildtype [6]): 2.0 | EC50 (DC-SIGN ECD wildtype [6]; 25 μM ECD): 300 µM
Molecule: [Ca+2].[Cl-].[Cl-] [CaCl2]

increased affinity compared to the wildtype (DC-SIGN ECD M270F [1]; [10]): 10 fold | EC50 (mean ± SD), HRP titration (DC-SIGN ECD M270F [1]; [11]): 0.2 ± 0.2 μg mL^–1 | EC50 (mean ± SD), HRP titration (DC-SIGN ECD wildtype [2]; [11]): 1.8 ± 1.0 µg/mL | decreased affinity compared to the wildtype (DC-SIGN ECD T314A [3]; [10]): 4 fold | EC50 (mean ± SD), HRP titration (DC-SIGN ECD T314A [3]; [11]): 8.6 ± 0.1 μg mL^–1
Molecule: horseradish peroxidase [HRP]
